{"source": "patent US12472282B2", "about": "“Bioengineered wharton's jelly derived extracellular matrix” (University of Rochester, priority 2018, dated 2025)", "tested_on": "primary acute myeloid leukemia (AML) cells", "assay": "Response to chemotherapy following treatment with doxorubicin, DWJM culture vs suspension culture", "format": "cell-based, human", "experimental": "AML patient samples collected by leukapheresis were cultured in DWJM disks for one week. Non-adherent cells were first aspirated and adherent cells were separately isolated and assessed for viability, apoptosis, and colony forming unit (CFU). RNA sequencing was performed at the end of culture. Response to chemotherapy following treatment with doxorubicin was also assessed. For all studies, DWJM-adherent and non-adherent cells were compared to suspension culture controls. Metabolic pathway analyses were conducted using enzyme-linked immunosorbent assay (ELISA). One-tailed t-test was used for comparison between the groups"}
{"smiles": "COc1cccc2c1C(=O)c1c(O)c3c(c(O)c1C2=O)C[C@@](O)(C(=O)CO)C[C@@H]3O[C@H]1C[C@H](N)[C@H](O)[C@H](C)O1", "note": "[doxorubicin]", "values": [{"measurement": "CFU activity after doxorubicin", "setting": "co-culture with DWJM, P=0.047", "result": "3.3 /300,000 cells"}, {"measurement": "CFU activity after doxorubicin", "setting": "suspension culture cells", "result": "0.3 /300,000 cells"}]}
